Reference: patent US20060166189A1, “Methods for detecting invasion of a cell” (priority 2002, published 2006)

Test system: HeLa cells
Assay type: cell-based

Substance: cytosine arabinose [Ara C]
- effect on β-galactosidase expression from vSC8 (late vaccinia promoter P11): completely blocked
